The text below walks through data of PubChem BioAssay (NCI).

Molecules are shown by their SMILES.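 Five concentrations, 48 hours, 96-well plates. Here, GI50 denotes the concentration required for 50% inhibition of growth. At the TGI there is no net growth.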

Among the test systems are SK-MEL-5 melanoma; UACC-257 melanoma; TK-10 renal; A498 renal; EKVX NSCLC; NCI-H23 lung; MOLT-4 leukemia; SF-539 CNS; MALME-3M melanoma; UACC-62 melanoma.
Common to all, as to assay: inhibition of tumour cell growth, NCI panel, 48 h

As for `O=C(c1ccc(Nc2nccc(NCCCCNc3ccnc4cc(Cl)ccc34)n2)cc1)N1CCCCC1`, the GI50 in the assay with SK-MEL-5 melanoma is 1610 nM; in the assay with UACC-257 melanoma, 1.75 µM; in the assay with TK-10 renal, 2.16 µM; in the assay on A498 renal, 674 nM; with EKVX NSCLC, 3.86 µM; in the assay with NCI-H23 lung, 2.95 µM. In the assay with MOLT-4 leukemia, the GI50 is 1.74 µM. Besides, the TGI with SK-MEL-5 melanoma was 2.98 µM; in the assay on UACC-257 melanoma, 3.34 µM; in the assay with TK-10 renal, 4.83 µM; with A498 renal it was 6.22 µM; with EKVX NSCLC, 19.8 µM; in the assay on NCI-H23 lung it was 15.7 µM. In the assay with MOLT-4 leukemia, the TGI stood at 5.99 µM.
On to `CC(=N/NC(N)=S)/C(C)=N/NC(N)=S`, for which the TGI in the assay with SK-MEL-5 melanoma, in the assay with UACC-257 melanoma, in the assay with TK-10 renal, with SF-539 CNS, in the assay with MALME-3M melanoma and with EKVX NSCLC was greater than 100 µM in each case. For the same molecule, the TGI in the assay with NCI-H23 lung, with UACC-62 melanoma and with MOLT-4 leukemia was greater than 100 µM throughout.
Consider `CCOC(=O)c1cc2c(n1Cc1cc(OC)cc(OC)c1)-c1oncc1CC2`, for which the GI50 with SK-MEL-5 melanoma was 82.7 nM; in the assay on UACC-257 melanoma it was 47 µM; in the assay with TK-10 renal it was 3.58 µM; in the assay on SF-539 CNS it was 0.243 µM; in the assay on A498 renal, 53.2 nM; in the assay on EKVX NSCLC, 0.32 µM. For the same molecule, the GI50 with NCI-H23 lung is 0.307 µM; in the assay on UACC-62 melanoma, 403 nM; in the assay on MOLT-4 leukemia it was 0.525 µM. In addition, the TGI was 20.3 µM with SK-MEL-5 melanoma; greater than 100 µM in the assay on UACC-257 melanoma; greater than 100 µM in the assay on TK-10 renal; 4.58 µM with SF-539 CNS; 0.779 µM in the assay with A498 renal; greater than 100 µM in the assay on EKVX NSCLC. Also, the TGI in the assay on NCI-H23 lung, with UACC-62 melanoma and with MOLT-4 leukemia was greater than 100 µM each time.
For the molecule `CC[P+]1(c2ccccc2)CCCCC1`, the TGI in the assay on SK-MEL-5 melanoma, in the assay with UACC-257 melanoma, in the assay with TK-10 renal, with SF-539 CNS, with MALME-3M melanoma and with EKVX NSCLC was greater than 100 µM throughout. In addition, the TGI in the assay with NCI-H23 lung, with UACC-62 melanoma and in the assay with MOLT-4 leukemia was greater than 100 µM each time.
`CN(C)CCNC(=O)c1cccc2c1nc(-c1ccncc1)c1ccccc12`: the TGI turned out to be 6.8 µM in the assay with SK-MEL-5 melanoma; 12.6 µM in the assay with UACC-257 melanoma; 7.77 µM with TK-10 renal; 10.7 µM in the assay with SF-539 CNS; 7.67 µM with A498 renal; 10 µM in the assay on EKVX NSCLC. The TGI was 13.1 µM with NCI-H23 lung, 6.44 µM in the assay with UACC-62 melanoma and greater than 100 µM with MOLT-4 leukemia.
Turning to `CNC(=O)NCCN1N=C(C)/C(=C\c2ccccc2)CC1=O`, the TGI in the assay on SK-MEL-5 melanoma, in the assay with UACC-257 melanoma, in the assay on TK-10 renal, in the assay with SF-539 CNS, in the assay with A498 renal and in the assay with MALME-3M melanoma was greater than 100 µM in each case. Also, the TGI with NCI-H23 lung, in the assay with UACC-62 melanoma and in the assay on MOLT-4 leukemia was greater than 100 µM in each case.
Turning to `Nc1nc(N)c(-c2ccc(Cl)c(Cl)c2)c(CP(Cl)(Cl)(Cl)Br)n1`, the GI50 was 6720 nM in the assay on SK-MEL-5 melanoma; 8.35 µM in the assay on UACC-257 melanoma; 29.6 µM with TK-10 renal; 12.9 µM with SF-539 CNS; 22900 nM in the assay on A498 renal; 18.4 µM with MALME-3M melanoma. Moreover, the GI50 in the assay on NCI-H23 lung was 19.6 µM; in the assay on UACC-62 melanoma, 6400 nM; with MOLT-4 leukemia, 28.6 µM. Moreover, the TGI with SK-MEL-5 melanoma was 56.6 µM; with UACC-257 melanoma, 84.7 µM; with TK-10 renal, greater than 100 µM; in the assay on SF-539 CNS it was greater than 100 µM; in the assay with A498 renal it was greater than 100 µM; in the assay on MALME-3M melanoma, 72.1 µM. The TGI is greater than 100 µM in the assay with NCI-H23 lung, 32.2 µM in the assay with UACC-62 melanoma and greater than 100 µM with MOLT-4 leukemia.
Turning to `CCSCCCC(=O)O`, the TGI with SK-MEL-5 melanoma, in the assay on UACC-257 melanoma, in the assay on TK-10 renal, with A498 renal, in the assay on MALME-3M melanoma and in the assay with EKVX NSCLC was greater than 100 µM each time. For the same molecule, the TGI with NCI-H23 lung, in the assay with UACC-62 melanoma and with MOLT-4 leukemia was greater than 100 µM throughout.
For the molecule `CC1(C)CN(CCNc2nccc(-c3c(-c4cccc(O)c4)nc4sccn34)n2)S(=O)(=O)N1`, the GI50 was 1290 nM in the assay with SK-MEL-5 melanoma; 2.12 µM with UACC-257 melanoma; greater than 22.6 µM with TK-10 renal; 30 µM with SF-539 CNS; 1550 nM with A498 renal; greater than 33.2 µM in the assay with EKVX NSCLC. The GI50 in the assay with NCI-H23 lung is 16.8 µM; in the assay with UACC-62 melanoma it was 116 nM; with MOLT-4 leukemia, 11.3 µM. Besides, the TGI in the assay with SK-MEL-5 melanoma was 12.5 µM; in the assay on UACC-257 melanoma it was greater than 33.2 µM; with TK-10 renal it was greater than 33.2 µM; in the assay on SF-539 CNS it was greater than 33.2 µM; with A498 renal, 19.7 µM; with EKVX NSCLC it was greater than 33.2 µM. For the same molecule, the results for the TGI in the assay with NCI-H23 lung, with UACC-62 melanoma and in the assay with MOLT-4 leukemia were greater than 33.2 µM, 3.3 µM and greater than 33.2 µM, respectively.
As to `Cc1ccc2c(c1)C(O)(c1ccccc1)CCS2` (stereo unspecified), the TGI in the assay with SK-MEL-5 melanoma was greater than 100 µM; with UACC-257 melanoma, greater than 100 µM; in the assay on TK-10 renal it was 78.6 µM; in the assay with SF-539 CNS it was 55 µM; in the assay with MALME-3M melanoma, 93.5 µM; in the assay with EKVX NSCLC it was greater than 100 µM. For the same molecule, the TGI was 89.9 µM with NCI-H23 lung, 52.7 µM in the assay with UACC-62 melanoma and 44.7 µM in the assay on MOLT-4 leukemia.
In the case of `C=CCC1C(=O)CC2(C)C(CC=C)C(=O)CC12C` (stereo unspecified), the TGI in the assay with SK-MEL-5 melanoma, in the assay on UACC-257 melanoma, in the assay on TK-10 renal, with SF-539 CNS, in the assay with MALME-3M melanoma and in the assay on EKVX NSCLC was greater than 100 µM each time. In addition, the TGI with NCI-H23 lung, with UACC-62 melanoma and in the assay on MOLT-4 leukemia was greater than 100 µM throughout.
